According to patent publication US20240368120A1 (Terns Pharmaceuticals, Inc., priority 2023, published 2024):

Key:
human GLP-1R receptor = target: T1, human GLP-1R receptor (Homo sapiens, UniProt P43220); assay: GLP-1R low expression cell assay (cAMP TR-FRET, CHO-K1_hGLP-1Rlow_clone10 cells); format: cell-based; details: for EC50: cAMP TR-FRET, 30 min at 25° C.; for Emax: maximum activation relative to control GLP-1 peptide agonist
T1 construct: expressed in transfected cells
Procedure, shortened: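 Readout is cAMP TR-FRET after 30 min compound stimulation at 25 °C of a low-GLP-1R-expressing CHO-K1 clone (1,000 cells/well), with 10-point 3-fold serial dilutions. Percent activation versus a control GLP-1 peptide, from duplicates, was Hill-fitted to give EC50.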

[1] = Rat pharmacokinetics, oral dosing; format: in vivo, Sprague-Dawley rats; details: male, Sprague-Dawley, oral dosing at 3 mg/kg, plasma; for half-life: read-out: Rat T1/2
Procedure: Intravenous dosing: Compounds were formulated at 1.0 mg/mL in a solution comprising 5% polyethylene glycol 400 and 95% (12% (w/v) sulfobutyl-β-cyclodextrin in water) (v/v). Formulated compounds were sterile filtered through a 0.22 micron filter before dosing. Compounds were administered to male, 7-11-week-old Sprague-Dawley rats by jugular vein cannula infusion over 30 minutes at a dose of 1 mg/kg. Oral dosing: Compounds were formulated at 1.0 mg/mL in a solution comprising 5% polyethylene glycol 400 and 95% (12% (w/v) sulfobutyl-β-cyclodextrin in water) (v/v). Formulated compounds were administered to male, 7-11 week old Sprague-Dawley rats by oral gavage at a dose of 10 mg/kg or 3 mg/kg.
Sample collection: Blood collections of about 0.2 mL per time point were performed from jugular vein or other suitable site of each animal, into pre-chilled commercial EDTA-K2 tubes and placed on wet ice until centrifugation. Blood samples were processed for plasma by centrifugation at approximately 4° C., 3,200 g for 10 min. Plasma was collected and transferred into pre-labeled 96 well plate or polypropylene tubes, quick frozen over dry ice and kept at −60° C. or lower until
Data analysis: Plasma concentration versus time data was plotted in graph and analyzed by non-compartmental approaches using the Phoenix WinNonlin 6.3 software program. Related PK parameters were calculated according to dosing route, e.g., CL, Vdss and C0 for intravenous administration, Cmax, Tmax or % F for extravascular administration, and T1/2, AUC(0-t), AUC(0-inf), MRT(0-t), MRT(0-inf) for all routes.

T1 sequence (P43220 24-463): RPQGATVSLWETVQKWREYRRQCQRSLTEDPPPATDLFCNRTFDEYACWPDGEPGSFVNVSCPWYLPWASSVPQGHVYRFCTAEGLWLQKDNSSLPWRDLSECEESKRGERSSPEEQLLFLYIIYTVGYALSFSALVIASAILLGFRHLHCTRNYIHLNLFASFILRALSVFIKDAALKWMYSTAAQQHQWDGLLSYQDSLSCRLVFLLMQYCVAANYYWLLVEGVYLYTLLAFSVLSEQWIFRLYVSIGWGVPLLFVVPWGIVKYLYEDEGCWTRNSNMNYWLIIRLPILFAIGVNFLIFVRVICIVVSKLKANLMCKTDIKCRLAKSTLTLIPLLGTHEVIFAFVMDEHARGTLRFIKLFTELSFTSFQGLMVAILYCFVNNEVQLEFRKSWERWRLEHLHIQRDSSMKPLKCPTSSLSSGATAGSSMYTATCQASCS

Row | Compound | EC50 (human GLP-1R receptor) | Emax (human GLP-1R receptor) | AUC [1] | Cmax [1] | half-life [1] | bioavailability [1]
1 | Cn1c(CN2CCC(c3cccc4c3O[C@@H](c3ccc(C#N)cc3F)CO4)CC2)nc2c(OCCF)cc(C(=O)O)cc21 [Compound 294, (S)-2-((4-(3-(4-Cyano-2-fluorophenyl)-2,3-dihydrobenzo[b][1,4]dioxin-5-yl)piperidin-1-yl)methyl)-4-(2-fluoroethoxy)-1-methyl-1H-benzo[d]imidazole-6-carboxylic acid] | > 1000 nM | 50 to 85% | < 500 ng·h/mL | < 500 ng/mL | ≥ 2.5 h | < 25%
2 | Cn1c(CN2CCC(c3cccc4c3O[C@@H](c3ccc(Cl)cc3F)CO4)CC2)nc2c(OCCF)cc(C(=O)O)cc21 [Compound 299, (S)-2-((4-(3-(4-chloro-2-fluorophenyl)-2,3-dihydrobenzo[b][1,4]dioxin-5-yl)piperidin-1-yl)methyl)-4-(2-fluoroethoxy)-1-methyl-1H-benzo[d]imidazole-6-carboxylic acid] | < 10 nM | > 85% | 500 to 2500 ng·h/mL | < 500 ng/mL | 1.5 to 2.5 h | 50 to 85%
3 | COCCOc1cc(C(=O)O)cc2c1nc(CN1CCC(c3cccc4c3O[C@@](C)(c3ccc(Cl)cn3)O4)CC1)n2C [Compound 309, (S)-2-((4-(2-(5-Chloropyridin-2-yl)-2-methylbenzo[d][1,3]dioxol-4-yl)piperidin-1-yl)methyl)-4-(2-methoxyethoxy)-1-methyl-1H-benzo[d]imidazole-6-carboxylic acid] |  | > 85% | < 500 ng·h/mL | < 500 ng/mL | ≥ 2.5 h | < 25%
4 | Cn1c(CN2CCC(c3ccc(F)c(OCc4ccc(C#N)cc4F)n3)CC2)nc2c(OC(F)F)cc(C(=O)O)cc21 [Compound 137, 2-((4-(6-((4-Cyano-2-fluorobenzyl)oxy)-5-fluoropyridin-2-yl)piperidin-1-yl)methyl)-4-(difluoromethoxy)-1-methyl-1H-benzo[d]imidazole-6-carboxylic acid] | 10 to 100 nM | > 85% | 2500 to 10000 ng·h/mL | > 5000 ng/mL | 1.5 to 2.5 h | > 85%
5 | COc1cc(C(=O)O)cc2c1nc(N(C)[C@H]1CC[C@H](c3cccc4c3O[C@@](C)(c3ccc(Cl)cn3)O4)CC1)n2C[C@@H]1CCO1 [Compound 80, 2-(((1S,4S)-4-((S)-2-(5-Chloropyridin-2-yl)-2-methylbenzo[d][1,3]dioxol-4-yl)cyclohexyl)(methyl)amino)-4-methoxy-1-(((S)-oxetan-2-yl)methyl)-1H-benzo[d]imidazole-6-carboxylic acid] | < 10 nM | > 85% | < 500 ng·h/mL | < 500 ng/mL | ≥ 2.5 h | < 25%
6 | C[C@@]1(c2ccc(Cl)cn2)Oc2cccc(C3CCN(Cc4nc5c(OC6CC6)cc(C(=O)O)cc5n4Cc4cncs4)CC3)c2O1 [Compound 7, (R)-2-((4-(2-(5-chloropyridin-2-yl)-2-methylbenzo[d][1,3]dioxol-4-yl)piperidin-1-yl)methyl)-4-cyclopropoxy-1-(thiazol-5-ylmethyl)-1H-benzo[d]imidazole-6-carboxylic acid] | 10 to 100 nM | > 85% | < 500 ng·h/mL | < 500 ng/mL | ≥ 2.5 h | < 25%
7 | COc1cc(C(=O)O)cc2c1nc(CN1CCC(c3cccc4c3O[C@@](C)(c3ccc(Cl)cn3)O4)CC1)n2C [Compound 85, (S)-2-((4-(2-(5-Chloropyridin-2-yl)-2-methylbenzo[d][1,3]dioxol-4-yl)piperidin-1-yl)methyl)-4-methoxy-1-methyl-1H-benzo[d]imidazole-6-carboxylic acid] | < 10 nM | > 85% | 2500 to 10000 ng·h/mL | 1000 to 2000 ng/mL | 1.5 to 2.5 h | 25 to 50%
